Source: patent EP3074389B1, “QUINOLINE DERIVATIVES AS BROMODOMAIN INHIBITORS” (Gilead Sciences, Inc., priority 2013, dated 2015)

Assays:
BRD4 domain 2 = BRD4 domain 2 (Homo sapiens, UniProt O60885); test: Kd determination of inhibitors binding to BRD4 domain 2 (Epic label-free platform); conditions: direct binding to immobilized BRD4 domain 2; tripling dilution series from 20µM; about 1hr equilibrium; rounded to whole number
Method: (§1) Kd Determination of Inhibitors Binding to BRD4 Domain 1 and Domain 2
(§2) The binding of small molecule inhibitors to either BRD4 domain 1 or domain 2 were determined using the Epic, high-throughput, label-free platform (Corning, Lowell, MA). The Epic instrument incorporates an evanescent waveguide sensor within each well of its proprietary 384-well microplates. Direct binding of inhibitors to BRD4 immobilized onto the microplate well surface can be detected by exposing the waveguide to a broadband light source. The resulting resonant wavelength shift (measured in picometers (pm)) is proportional to the mass bound to the surface. Epic biochemical plates (Corning, Lowell, MA) were activated by adding 15 µL/well of 200 mM EDC and 50 mM Sulfo-NHS (Pierce Thermo Scientific, Rockford, IL) and incubated for 60 minutes at room temperature. Plates were washed three times with MilliQ water and dried by centrifugation (1 minute at 400 rpm). BRD4 immobilization was accomplished by resuspending the protein at a concentration of 150 µg/mL in 20 mM HEPES (pH 7) and adding 10 µL/well. […] Compound/inhibitor binding was determined by calculating difference between the baseline (first read) and second read. The resulting binding response was fitted to a single site binding isotherm in order to determine an equilibrium dissociation constant (Kd).

BRD4 domain 1 = BRD4 domain 1 (Homo sapiens, UniProt O60885); test: Kd determination of inhibitors binding to BRD4 domain 1 (Epic label-free platform); conditions: direct binding to immobilized BRD4 domain 1; tripling dilution series from 20µM; about 1hr equilibrium; rounded to whole number; read-out: Epic Kd BRD41
Method: as §1, §2

Row | Kd (BRD4 domain 2) [nM] | Kd (BRD4 domain 1) [nM] | SMILES
1 | 7990 | 5860 | CCOC(=O)N[C@H]1CCC[C@H]1NS(=O)(=O)c1cc(-c2c(C)noc2C)cc2ncccc12 [Compound 54, ethyl ((1S,2R)-2-(7-(3,5-ditnethylisoxazol-4-yl)quinoline-5-sulfonamido)cyclopentyl)carbamate]
2 | 477 | 444 | Cc1noc(C)c1-c1cc(S(=O)(=O)NC2CCCC2)c2cc(NCCO)c(=O)[nH]c2c1 [Compound 57, N-cyclopentyl-7-(3,5-dimethylisoxazol-4-yl)-3-((2-hydroxyethyl)amino)-2-oxo-1,2-dihydroquinoline-5-sulfonamide]
3 | 1900 | 2230 | Cc1noc(C)c1-c1cc(S(=O)(=O)NC2CCCC2)c2cc(N3CCCCC3)c(=O)[nH]c2c1 [Compound 60, N-cyclopentyl-7-(3,5-dimethylisoxazol-4-yl)-2-oxo-3-(piperidin-1-yl)-1,2-dihydroquinoline-5-sulfonamide]
4 | 611 | 933 | Cc1noc(C)c1-c1cc(S(=O)(=O)NC2CCCC2)c2cc(N3CCNCC3)c(=O)[nH]c2c1 [Compound 56, N-cyclopentyl-7-(3,5-dimethylisoxazol-4-yl)-2-oxo-3-(piperazin-1-yl)-1,2-dihydroquinoline-5-sulfonamide]
5 | 9560 | 14600 | COC[C@H]1CCC[C@H]1NS(=O)(=O)c1cc(-c2c(C)noc2C)cc2ncccc12 [Compound 63, 7-(3,5-dimethylisoxazol-4-yl)-N-((1R,2S)-2-(methoxymethyl)cyclopentyl)quinoline-5-sulfonamide]
6 | 943 | 1060 | Cc1noc(C)c1-c1cc(S(=O)(=O)NC2CCCC2)c2cc(NCCN(C)C)c(=O)[nH]c2c1 [Compound 88, N-cyclopentyl-3-((2-(dimethylamino)ethyl)amino)-7-(3,5-dimethylisoxazol-4-yl)-2-oxo-1,2-dihydroquinoline-5-sulfonamide]
7 | 8940 | 10700 | Cc1noc(C)c1-c1cc(S(=O)(=O)NC2CCCC2)c2cc(C(=O)N(C)C)c(=O)[nH]c2c1 [Compound 75, 5-(N-cyclopentylsulfamoyl) -7-(3,5-dimethylisoxazol-4-yl)-N,N-dimethyl-2-oxo-1,2-dihydroquinoline-3 - carboxamide]
8 | 320 | 313 | COCCNc1cc2c(S(=O)(=O)NC3CCCC3)cc(-c3c(C)noc3C)cc2[nH]c1=O [Compound 58, N-cyclopentyl-7-(3,5-dimethylisoxazol-4-yl)-3-((2-methoxyethyl)amino)-2-oxo-1,2-dihydroquinoline-5-sulfonamide]
9 | 421 | 520 | Cc1noc(C)c1-c1cc(S(=O)(=O)NC2CCCC2)c2cc(NC3CCN(C)CC3)c(=O)[nH]c2c1 [Compound 66, N-cyclopentyl-7-(3,5-dimethylisoxazol-4-yl)-3-((1-methylpiperidin-4-yl)amino)-2-oxo-1,2-dihydroquinoline-5-sulfonamide]
10 | 1960 | 8230 | Cc1noc(C)c1-c1cc(S(=O)(=O)NC2CCCC2)c2cc(C(=O)O)c(=O)[nH]c2c1 [Compound 70, 5-(N-cyclopentylsulfamoyl) -7-(3,5-dimethylisoxazol-4-yl)-2-oxo-1,2-dihydroquinoline-3-carboxylic acid]
11 | 658 | 936 | Cc1noc(C)c1-c1cc(S(=O)(=O)NC2CCCC2)c2cc(NC(C)(C)CO)c(=O)[nH]c2c1 [Compound 97, N-cyclopentyl-7-(3,5-dimethylisoxazol-4-yl)-3-((1-hydroxy-2-methylpropan-2-yl)amino)-2-oxo-1,2-dihydroquinoline-5-sulfonamide]
12 | 645 | 1020 | Cc1noc(C)c1-c1cc(S(=O)(=O)NC2CCCC2)c2cc(N(C)C)c(=O)[nH]c2c1 [Compound 61, N-cyclopentyl-3-(dimethylamino)-7-(3,5-dimethylisoxazol-4-yl)-2-oxo-1,2-dihydroquinoline-5-sulfonamide]
13 | 8130 | 7170 | Cc1noc(C)c1-c1cc(S(=O)(=O)N[C@@H]2CCC[C@@H]2C(=O)N2CCNCC2)c2cccnc2c1 [Compound 50, 7-(3,5-dimethylisoxazol-4-yl)-N-((1R,2S)-2-(piperazine-1-carbonyl)cyclopentyl) quinoline-5-sulfonamide]

Second part, the compound before the results:

Row | SMILES | Kd (BRD4 domain 2) [nM] | Kd (BRD4 domain 1) [nM]
14 | Cc1noc(C)c1-c1cc(S(=O)(=O)NC2CCCC2)c2cc(C#N)c(=O)[nH]c2c1 [Compound 31, 3-cyano-N-cyclopentyl-7-(3,5-dimethylisoxazol-4-yl)-2-oxo-1,2-dihydroquinoline-5-sulfonamide] | 634 | 867
15 | Cc1noc(C)c1-c1cc(S(=O)(=O)N[C@@H]2CCC[C@H]2N)c2cccnc2c1 (stereo in doubt) [Compound 46, N-((1R,2R)-2-aminocyclopentyl)-7-(3,5-dimethylisoxazol-4-yl)quinoline-5-sulfonamide] | 7830 | 6420
16 | Cc1noc(C)c1-c1cc(S(=O)(=O)NC2CCCC2)c2ccc(C(F)F)nc2c1 [Compound 2, N-cyclopentyl-2-(difluoromethyl)-7 - (3,5-dimethylisoxazol-4-yl)quinoline-5-sulfonamide] | 1320 | 3380
17 | Cc1noc(C)c1-c1cc(S(=O)(=O)N[C@H]2CC[C@@H](O)C2)c2cccnc2c1 [Compound 19, 7-(3,5-dimethylisoxazol-4-yl)-N-((1S,3R)-3-hydroxycyclopentyl)q uinoline-5-sulfonamide] | 7720 | 16600
18 | Cc1noc(C)c1-c1cc(S(=O)(=O)NC2(C#N)CC2)c2cccnc2c1 [Compound 49, N-(1-cyanocyclopropyl)-7-(3,5-dimethylisoxazol-4-yl)quinoline-5-sulfonamide] | 18800 | > 20000
19 | Cc1noc(C)c1-c1cc(S(=O)(=O)N[C@@H]2CCC[C@H]2C(=O)NC2CCCC2)c2cccnc2c1 [Compound 35, (1R,2R)-N-cyclopentyl-2-(7-(3,5-dimethylisoxazol-4-yl)quinoline-5-sulfonamido)cyclopen tanecarboxamide] | 19700 | > 20000
20 | Cc1noc(C)c1-c1cc(S(=O)(=O)NC2CCCC2)c2ccc(NCC3CC3)nc2c1 [Compound 5, N-cyclopentyl-2-((cyclopropylmethyl)amino)-7-(3,5-dimethylisoxazol-4-yl)quinoline-5-sulfonamide] | 1460 | 1060
21 | Cc1noc(C)c1-c1cc(S(=O)(=O)NC2CCCC2)c2cc(N)c(=O)[nH]c2c1 [Compound 41, 3-amino-N-cyclopentyl-7-(3,5-dimethylisoxazol-4-yl)-2-oxo-1,2-dihydroquinoline-5-sulfonamide] | 450 | 400
22 | Cc1noc(C)c1-c1cc(S(=O)(=O)N[C@@H]2CCC[C@@H]2C(=O)NCc2nccn2C)c2cccnc2c1 [Compound 43, (1S,2R)-2-(7-(3,5-dimethylisoxazol-4-yl)quinoline-5-sulfonamido)-N-((1-methyl-1H-imidazol-2-yl)methyl)cyclopentan ecarboxamide] | 10700 | > 20000
23 | Cc1noc(C)c1-c1cc(S(=O)(=O)NCC2CC2)c2cccnc2c1 [Compound 15, N-(cyclopropylmethyl)-7-(3,5-dimethylisoxazol-4-yl)quinoline-5-sulfonamide] | 5900 | 9430
24 | Cc1noc(C)c1-c1cc(S(=O)(=O)N[C@H]2C[C@@H]3CC[C@H]2C3)c2cccnc2c1 [Compound 38, N-((1S,2S,4R)-bicyclo[2.2.1]heptan-2-yl)-7-(3,5-dimethylisoxazol-4-yl)quinoline-5-sulfonamide] | 3490 | 3140
25 | Cc1noc(C)c1-c1cc(S(=O)(=O)NC2CCCC2)c2cc(Br)c(=O)[nH]c2c1 [Compound 22, 3-bromo-N-cyclopentyl-7-(3,5-dimethylisoxazol-4-yl)-2-oxo-1,2-dihydroquinoline-5-sulfonamide] | 501 | 1020
26 | Cc1noc(C)c1-c1cc(S(=O)(=O)NC2CCCC2)c2ccc(Cl)nc2c1 [Compound 3, 2-chloro-N-cyclopentyl-7-(3,5-dimethylisoxazol-4-yl)quinoline-5-sulfonamide] | 2970 | 1250
27 | Cc1noc(C)c1-c1cc(S(=O)(=O)NC2CCCC2)c2cc(-c3cnc(C)n3C)c(=O)[nH]c2c1 [Compound 30, N-cyclopentyl-3-(1,2-dimethyl-1H-imidazol-5-yl)-7-(3,5-dimethylisoxazol-4-yl)-2-oxo-1,2-dihydroquinoline-5-sulfonamide] | 1700 | 6400
28 | Cc1noc(C)c1-c1cc(S(=O)(=O)NC2CCCC2)c2cc(-c3ccccn3)c(=O)[nH]c2c1 [Compound 36, N-cyclopentyl-7-(3,5-dimethylisoxazol-4-yl)-2-oxo-3-(pyridin-2-yl)-1,2-dihydroquinoline-5-sulfonamide] | 718 | 1450
29 | Cc1noc(C)c1-c1cc(S(=O)(=O)N[C@@H]2CCC[C@H]2NC(=O)OC(C)(C)C)c2cccnc2c1 [Compound 45, tert-butyl ((1R,2R)-2-(7-(3,5-dimethylisoxazol-4-yl)quinoline-5-sulfonamido)cyclopentyl)carbamate] | > 20000 | 14600
